Experimental data taken from patent US20130071897A1, “METHOD FOR CONTROLLING UNDESIRABLE BYPRODUCTS FORMATION CAUSED BY CONTAMINATING ORGANISMS IN THE PRODUCTION OF ETHANOL FROM SYNGAS” (COSKATA, INC., priority 2011, published 2013).
“And” between values parts separate entries of the source, which are not always exact repeats. Equal values may be shown once.

System: C. autoethanogenum
Experiment: Toxicity to C. autoethanogenum by batch fermentation using syngas substrate, optical density
Format: cell-based, Clostridium autoethanogenum
Conditions: for O.D. Response of Various Inhibitors on C. autoethanogenum: Table 21, one value per compound; for O.D. Response to Various Inhibitors: duplicates A and B, amount not given
Description: In this example various crotonate-like compounds on are evaluated for toxicity to C. autoethanogenum by batch fermentation using syngas substrate. The batch fermentations are conducted by anoxically filling 100 mL serum bottles with 10 mL of media having the composition given in Tables 12 and 13. Duplicate runs are conducted for each concentration. The compounds are: • C-1 Ethyl 4,4,4-trifluoro-3-(trifluoromethyl)crotonate • C-4 4,4,4-Trifluorocrotonamide • C-9 Ethyl 4,4,4-Trifluoro-3-(amino)crotonate • C-18 3 trifluoromethyl-4-methoxybenzoate.
Each bottle is inoculated with 1.0 mL of seed culture inoculum from an active fermenter using syngas substrate and containing Clostridium autoethanogenum, which inoculum has an OD of about 4.92 (which upon a 10 times dilution provides a starting OD for the fermentation of about 0.49). The bottles are gased with syngas to about 100 kilopascals and maintained at a temperature of 37° C. The bottles are regassed with syngas every 8 to 12 hours. The syngas has the approximate composition set forth in Examples 6 to 10. Twenty four hours after inoculation of the bottles with the bacteria, the compounds are added to different bottles as a solution in 50 μL of N-methylpyrrolidone in the amounts indicated in Tables 20 and 21. The fermentation process is allowed to progress at 37° C. At selected intervals of time, bacterial growth is measured by reading the OD of the fermentation liquid using a Thermo Spectronic Genesys 20 spectrophotometer. Optical density is measured by anoxically removing an aliquot of fermentation liquid and adding it to a disposable cuvette. OD's ranging between 0.01 and 0.4 are measured using fermentation liquid directly, while OD's greater than 0.4 are measure after performing a 1/10 dilution with water.

[1] = 0 Hours, added 24 h after inoculation
[2] = 2.5 Hours, added 24 h after inoculation
[3] = 6.5 Hours, added 24 h after inoculation
[4] = 24.5 Hours, added 24 h after inoculation

Row | Structure (SMILES) | O.D. Response of Various Inhibitors on C. autoethanogenum [1] | O.D. Response of Various Inhibitors on C. autoethanogenum [2] | O.D. Response of Various Inhibitors on C. autoethanogenum [3] | O.D. Response of Various Inhibitors on C. autoethanogenum [4] | O.D. Response of Various Inhibitors on C. autoethanogenum (30.5 Hours) | O.D. Response of Various Inhibitors on C. autoethanogenum (47.5 Hours) | O.D. Response of Various Inhibitors on C. autoethanogenum (56 Hours) | O.D. Response to Various Inhibitors [1] | O.D. Response to Various Inhibitors (2.5 Hours, added 24 h after inoculation, listed as C-9) | O.D. Response to Various Inhibitors (6.5 Hours, added 24 h after inoculation, listed as C-9) | O.D. Response to Various Inhibitors (24.5 Hours, added 24 h after inoculation, listed as C-9) | O.D. Response to Various Inhibitors (30.5 Hours, added 24 h after inoculation, listed as C-9) | O.D. Response to Various Inhibitors (47.5 Hours, added 24 h after inoculation, listed as C-9) | O.D. Response to Various Inhibitors (2.5 Hours, added 24 h after inoculation, listed as C-1) | O.D. Response to Various Inhibitors (6.5 Hours, added 24 h after inoculation, listed as C-1) | O.D. Response to Various Inhibitors (24.5 Hours, added 24 h after inoculation, listed as C-1) | O.D. Response to Various Inhibitors (30.5 Hours, added 24 h after inoculation, listed as C-1) | O.D. Response to Various Inhibitors (47.5 Hours, added 24 h after inoculation, listed as C-1)
1 | CCOC(=O)/C=C(\N)C(F)(F)F [B, ethyl-3-amino-4,4,4-trifluorocrotonate] | 0.49 | 0.41 | 0.44 | 1.06 | 1.38 | 1.90 | 1.98 | 0.49 | 0.40 and 0.42 | 0.42 and 0.46 | 1.14 and 0.97 | 1.28 and 1.47 | 1.67 and 2.12 |  |  |  |  | 
2 | CCOC(=O)C=C(C(F)(F)F)C(F)(F)F [Compound A, ethyl 4,4,4-trifluoro-3-(trifluoromethyl)crotonate] | 0.49 | 0.44 | 0.44 | 1.12 | 1.18 | 0.66 | 0.58 | 0.49 |  |  |  |  |  | 0.42 and 0.46 | 0.42 and 0.46 | 1.17 and 1.08 | 1.15 and 1.22 | 0.66 and 0.67
